# Experiments:
# [1] = Drug metabolism in cynomolgus monkey liver microsomes assessed as methyl group loss from N-methylmethanesulfonamide; format: ADME, Macaca fascicularis
# [2] = Drug metabolism in mouse liver microsomes assessed as methyl group loss from N-methylmethanesulfonamide; format: ADME
# [3] = target: T1, ALK tyrosine kinase receptor (Homo sapiens, UniProt Q9UM73); assay: Inhibition of human ALK expressed in baculovirus using recombinant GST PLC-gamma as substrate assessed as phosphorylation of the substrate after 15 mins by TRF assay
# [4] = Drug metabolism in rat liver microsomes assessed as methyl group loss from N-methylmethanesulfonamide; format: ADME
# [5] = AUC (0 to 6 hrs) in rat by LC/MS/MS analysis; format: ADME; parameters: time < 6 hr; conditions: in vivo
# [6] = Half life in human liver microsomes by LC/MS/MS analysis; format: ADME
# [7] = Drug metabolism in human liver microsomes assessed as methyl group loss from N-methylmethanesulfonamide; format: ADME
# [8] = Half life in rat liver microsomes by LC/MS/MS analysis; format: ADME
# [9] = target: T1, ALK tyrosine kinase receptor; assay: Inhibition of NPM-ALK phosphorylation in human SUP-M2 cells after 2 to 3 hrs by ELISA; format: cell-based
# Target sequence in this assay (Q9UM73 19-1620 limits assumed): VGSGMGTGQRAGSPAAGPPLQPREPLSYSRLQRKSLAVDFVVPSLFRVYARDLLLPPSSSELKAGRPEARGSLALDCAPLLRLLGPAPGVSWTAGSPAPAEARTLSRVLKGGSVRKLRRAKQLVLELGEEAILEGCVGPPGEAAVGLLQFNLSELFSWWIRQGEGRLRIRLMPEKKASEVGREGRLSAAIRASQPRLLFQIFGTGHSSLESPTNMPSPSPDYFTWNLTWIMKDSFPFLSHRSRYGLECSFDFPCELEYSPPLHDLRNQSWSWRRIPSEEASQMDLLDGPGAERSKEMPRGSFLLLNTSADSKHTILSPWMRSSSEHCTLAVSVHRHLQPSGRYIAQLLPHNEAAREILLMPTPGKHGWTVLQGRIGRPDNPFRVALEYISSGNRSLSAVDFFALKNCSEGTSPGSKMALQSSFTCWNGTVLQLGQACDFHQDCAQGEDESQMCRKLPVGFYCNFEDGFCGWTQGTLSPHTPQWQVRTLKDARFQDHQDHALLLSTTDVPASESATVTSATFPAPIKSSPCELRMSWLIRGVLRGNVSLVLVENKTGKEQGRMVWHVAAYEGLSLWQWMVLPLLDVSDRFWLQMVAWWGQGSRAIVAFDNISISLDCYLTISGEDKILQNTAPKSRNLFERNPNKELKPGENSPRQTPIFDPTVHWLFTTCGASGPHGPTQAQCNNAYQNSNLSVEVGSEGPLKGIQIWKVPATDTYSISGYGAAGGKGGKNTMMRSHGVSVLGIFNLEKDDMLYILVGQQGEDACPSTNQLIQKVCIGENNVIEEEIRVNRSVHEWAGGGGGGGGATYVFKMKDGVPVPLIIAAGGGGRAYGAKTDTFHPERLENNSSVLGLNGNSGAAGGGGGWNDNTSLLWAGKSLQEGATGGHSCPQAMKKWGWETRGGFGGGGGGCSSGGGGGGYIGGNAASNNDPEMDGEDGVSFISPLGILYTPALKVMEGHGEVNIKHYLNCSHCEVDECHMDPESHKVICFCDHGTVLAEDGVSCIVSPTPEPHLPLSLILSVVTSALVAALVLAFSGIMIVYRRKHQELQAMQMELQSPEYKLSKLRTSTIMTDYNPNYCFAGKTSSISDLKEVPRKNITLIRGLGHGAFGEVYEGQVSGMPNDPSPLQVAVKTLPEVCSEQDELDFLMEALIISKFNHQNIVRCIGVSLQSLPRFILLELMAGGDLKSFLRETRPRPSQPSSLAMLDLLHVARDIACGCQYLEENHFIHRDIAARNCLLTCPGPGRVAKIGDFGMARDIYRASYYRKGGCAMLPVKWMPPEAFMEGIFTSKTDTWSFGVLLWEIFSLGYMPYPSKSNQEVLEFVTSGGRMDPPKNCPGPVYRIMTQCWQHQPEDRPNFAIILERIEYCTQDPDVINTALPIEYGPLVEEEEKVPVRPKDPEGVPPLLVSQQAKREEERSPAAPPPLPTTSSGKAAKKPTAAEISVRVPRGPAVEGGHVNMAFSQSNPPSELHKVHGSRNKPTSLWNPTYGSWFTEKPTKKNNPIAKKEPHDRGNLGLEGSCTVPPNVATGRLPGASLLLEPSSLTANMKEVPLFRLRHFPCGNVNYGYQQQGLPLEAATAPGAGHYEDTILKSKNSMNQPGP
# [10] = Half life in cynomolgus monkey liver microsomes by LC/MS/MS analysis; format: ADME, Macaca fascicularis
# [11] = Half life in CD-1 mouse liver microsomes by LC/MS/MS analysis; format: ADME
# [12] = Oral bioavailability in Sprague-Dawley rat at 5 mg/kg by LC/MS/MS analysis; format: ADME, organism-based; conditions: in vivo
# [13] = target: Voltage-gated inwardly rectifying potassium channel KCNH2 (Homo sapiens, UniProt Q12809); assay: Inhibition of human ERG
# [14] = target: T2, Cytochrome P450 1A2 (Homo sapiens, UniProt P05177); assay: Inhibition of CYP1A2 in human liver microsomes using phenacetin as substrate in presence of NADPH by LC/MS/MS analysis; format: ADME
# T2 sequence (P05177 whole entry): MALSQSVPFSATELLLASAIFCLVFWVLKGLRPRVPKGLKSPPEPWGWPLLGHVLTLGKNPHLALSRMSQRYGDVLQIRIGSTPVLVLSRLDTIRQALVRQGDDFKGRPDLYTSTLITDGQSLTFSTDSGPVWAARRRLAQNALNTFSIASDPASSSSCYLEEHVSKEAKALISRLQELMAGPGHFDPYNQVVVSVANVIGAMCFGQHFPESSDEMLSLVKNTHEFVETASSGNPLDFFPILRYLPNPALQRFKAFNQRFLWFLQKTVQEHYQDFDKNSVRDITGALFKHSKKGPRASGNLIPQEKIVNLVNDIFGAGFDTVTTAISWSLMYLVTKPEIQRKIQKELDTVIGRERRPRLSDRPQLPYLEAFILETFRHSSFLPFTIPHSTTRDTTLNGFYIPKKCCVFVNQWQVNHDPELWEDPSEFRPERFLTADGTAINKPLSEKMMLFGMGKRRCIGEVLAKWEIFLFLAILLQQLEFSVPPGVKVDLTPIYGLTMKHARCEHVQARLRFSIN
# [15] = target: Cytochrome P450 2C19 (Homo sapiens, UniProt P33261); assay: Inhibition of CYP2C19 in human liver microsomes using S-mephenytoin as substrate in presence of NADPH by LC/MS/MS analysis; format: ADME
# [16] = AUC (0 to infinity) in Sprague-Dawley rat at 5 mg/kg, po by LC/MS/MS analysis; format: ADME, organism-based; parameters: dose 5 mg/kg, time infinity, route oral; conditions: in vivo
# [17] = target: Cytochrome P450 2D6 (Homo sapiens, UniProt P10635); assay: Inhibition of CYP2D6 in human liver microsomes using dextromethorphan as substrate in presence of NADPH by LC/MS/MS analysis; format: ADME
# [18] = target: Cytochrome P450 2C9 (Homo sapiens, UniProt P11712); assay: Inhibition of CYP2C9 in human liver microsomes using diclofenac as substrate in presence of NADPH by LC/MS/MS analysis; format: ADME
# [19] = target: Cytochrome P450 3A4 (Homo sapiens, UniProt P08684); assay: Inhibition of CYP3A4 in human liver microsomes using testosterone/midazolam as substrate in presence of NADPH by LC/MS/MS analysis; format: ADME
# [20] = target: Insulin receptor (Homo sapiens, UniProt P06213)
# Description: Inhibition of recombinant human INSR expressed in baculovirus using ATP as substrate after 15 mins by TRF assay
# [21] = Drug level in human liver microsomes treated with (1S,2S,3R,4R)-3-(5-chloro-2-((S)-1-methoxy-7-morpholino-6,7,8,9-tetrahydro-5H-benzo[7]annulen-2-ylamino)pyrimidin-4-ylamino)bicyclo[2.2.1]hept-5-ene-2-carboxamide at 10 uM after 120 mins in presence of NADPH by LC/MS/MS analysis; format: ADME; conditions: 2 h
# [22] = Drug level in rat liver microsomes treated with (1S,2S,3R,4R)-3-(5-chloro-2-((S)-1-methoxy-7-morpholino-6,7,8,9-tetrahydro-5H-benzo[7]annulen-2-ylamino)pyrimidin-4-ylamino)bicyclo[2.2.1]hept-5-ene-2-carboxamide at 10 uM after 120 mins in presence of NADPH by LC/MS/MS analysis; format: ADME; conditions: 2 h
# [23] = Apparent permeability from apical to basolateral side in human Caco2 cells; format: ADME, cell-based; conditions: Caco-2
# Sequence of Cytochrome P450 2D6 (P10635 whole entry): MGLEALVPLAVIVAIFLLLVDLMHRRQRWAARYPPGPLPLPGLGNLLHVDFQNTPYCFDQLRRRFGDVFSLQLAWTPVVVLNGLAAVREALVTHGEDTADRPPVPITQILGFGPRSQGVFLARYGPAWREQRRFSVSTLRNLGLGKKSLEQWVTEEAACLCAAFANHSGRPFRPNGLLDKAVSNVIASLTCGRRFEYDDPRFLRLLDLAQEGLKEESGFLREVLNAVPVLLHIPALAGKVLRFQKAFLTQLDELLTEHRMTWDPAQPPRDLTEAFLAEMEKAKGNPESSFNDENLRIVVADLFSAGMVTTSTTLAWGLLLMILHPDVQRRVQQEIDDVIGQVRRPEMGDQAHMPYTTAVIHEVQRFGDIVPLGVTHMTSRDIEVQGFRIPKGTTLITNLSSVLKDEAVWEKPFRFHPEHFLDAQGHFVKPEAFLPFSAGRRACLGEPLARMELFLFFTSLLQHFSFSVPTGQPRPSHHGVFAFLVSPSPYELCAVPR
# Sequence of Cytochrome P450 2C19 (P33261 whole entry): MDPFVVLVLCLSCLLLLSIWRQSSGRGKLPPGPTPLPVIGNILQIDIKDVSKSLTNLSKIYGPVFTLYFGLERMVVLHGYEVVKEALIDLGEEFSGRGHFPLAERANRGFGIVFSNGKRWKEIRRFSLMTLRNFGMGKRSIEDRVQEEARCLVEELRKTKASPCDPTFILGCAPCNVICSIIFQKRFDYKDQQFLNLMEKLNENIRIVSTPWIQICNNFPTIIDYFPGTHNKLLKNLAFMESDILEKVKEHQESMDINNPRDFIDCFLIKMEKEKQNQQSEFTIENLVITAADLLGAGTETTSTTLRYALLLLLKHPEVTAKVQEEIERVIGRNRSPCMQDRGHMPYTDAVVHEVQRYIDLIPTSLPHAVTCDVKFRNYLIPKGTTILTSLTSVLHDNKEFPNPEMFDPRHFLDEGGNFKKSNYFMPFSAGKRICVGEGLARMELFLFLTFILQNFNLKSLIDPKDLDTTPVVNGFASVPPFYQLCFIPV
# Sequence of Voltage-gated inwardly rectifying potassium channel KCNH2 (Q12809 whole entry): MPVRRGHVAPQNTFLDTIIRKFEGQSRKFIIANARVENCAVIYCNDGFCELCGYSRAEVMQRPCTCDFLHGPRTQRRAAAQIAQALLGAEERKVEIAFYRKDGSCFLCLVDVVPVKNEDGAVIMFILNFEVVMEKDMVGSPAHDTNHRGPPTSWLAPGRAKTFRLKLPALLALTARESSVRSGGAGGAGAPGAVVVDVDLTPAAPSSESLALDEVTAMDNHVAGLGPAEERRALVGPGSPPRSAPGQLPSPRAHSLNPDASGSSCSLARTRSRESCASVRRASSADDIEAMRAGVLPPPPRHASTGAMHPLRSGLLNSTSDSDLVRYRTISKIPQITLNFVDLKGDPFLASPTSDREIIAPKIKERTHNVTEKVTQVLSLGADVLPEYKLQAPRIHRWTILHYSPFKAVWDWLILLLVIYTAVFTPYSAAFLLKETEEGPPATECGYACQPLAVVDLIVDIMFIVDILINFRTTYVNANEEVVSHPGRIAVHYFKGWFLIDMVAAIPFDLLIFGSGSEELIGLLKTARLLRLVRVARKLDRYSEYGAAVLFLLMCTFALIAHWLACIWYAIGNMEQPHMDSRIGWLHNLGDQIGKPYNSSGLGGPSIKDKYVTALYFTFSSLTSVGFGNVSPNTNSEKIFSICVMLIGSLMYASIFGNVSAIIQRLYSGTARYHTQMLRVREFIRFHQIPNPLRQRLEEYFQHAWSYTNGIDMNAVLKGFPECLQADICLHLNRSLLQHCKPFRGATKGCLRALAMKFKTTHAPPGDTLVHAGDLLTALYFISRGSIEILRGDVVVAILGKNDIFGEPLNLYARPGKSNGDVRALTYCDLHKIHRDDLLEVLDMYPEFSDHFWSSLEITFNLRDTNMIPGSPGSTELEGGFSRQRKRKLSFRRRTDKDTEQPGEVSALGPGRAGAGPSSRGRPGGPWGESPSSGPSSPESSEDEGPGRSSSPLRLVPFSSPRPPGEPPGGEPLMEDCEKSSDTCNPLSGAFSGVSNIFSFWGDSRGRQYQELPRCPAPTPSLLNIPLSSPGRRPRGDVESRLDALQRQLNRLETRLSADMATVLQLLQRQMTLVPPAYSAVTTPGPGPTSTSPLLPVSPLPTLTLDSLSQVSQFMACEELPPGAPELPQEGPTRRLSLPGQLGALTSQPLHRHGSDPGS
# Sequence of Cytochrome P450 2C9 (P11712 whole entry): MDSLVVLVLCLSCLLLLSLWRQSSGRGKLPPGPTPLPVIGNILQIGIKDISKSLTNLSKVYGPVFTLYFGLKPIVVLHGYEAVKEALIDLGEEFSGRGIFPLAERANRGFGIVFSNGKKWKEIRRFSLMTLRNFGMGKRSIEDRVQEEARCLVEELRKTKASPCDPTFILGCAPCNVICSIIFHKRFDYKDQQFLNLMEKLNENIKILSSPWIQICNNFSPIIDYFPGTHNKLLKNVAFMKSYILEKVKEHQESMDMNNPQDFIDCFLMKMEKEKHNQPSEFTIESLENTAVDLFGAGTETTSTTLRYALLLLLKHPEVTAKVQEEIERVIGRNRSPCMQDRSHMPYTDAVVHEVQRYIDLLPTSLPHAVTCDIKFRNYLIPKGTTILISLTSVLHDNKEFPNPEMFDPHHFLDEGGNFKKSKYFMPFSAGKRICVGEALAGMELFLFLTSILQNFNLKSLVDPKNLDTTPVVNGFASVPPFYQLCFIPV
# Sequence of Cytochrome P450 3A4 (P08684 whole entry): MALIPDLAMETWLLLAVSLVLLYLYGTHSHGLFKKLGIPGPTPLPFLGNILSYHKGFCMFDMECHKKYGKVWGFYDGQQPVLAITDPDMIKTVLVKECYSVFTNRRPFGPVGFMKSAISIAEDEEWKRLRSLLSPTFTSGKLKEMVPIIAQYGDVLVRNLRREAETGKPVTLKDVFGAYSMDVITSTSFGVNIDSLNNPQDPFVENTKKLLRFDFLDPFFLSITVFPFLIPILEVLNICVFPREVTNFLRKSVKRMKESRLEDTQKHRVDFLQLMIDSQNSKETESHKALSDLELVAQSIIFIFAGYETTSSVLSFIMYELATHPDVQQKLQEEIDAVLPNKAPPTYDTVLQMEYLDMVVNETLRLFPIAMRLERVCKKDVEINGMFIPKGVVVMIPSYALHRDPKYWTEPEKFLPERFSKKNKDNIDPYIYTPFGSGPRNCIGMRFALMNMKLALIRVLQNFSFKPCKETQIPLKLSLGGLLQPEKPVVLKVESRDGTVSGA
Compound,IC50 [3] [nM],half-life [6] [min],half-life [8] [min],IC50 [9] [nM],bioavailability [12] [%],IC50 [13] [nM],other results
COc1c(Nc2ncc(Cl)c(Nc3ccccc3N(C)S(C)(=O)=O)n2)ccc2c1CCCC(N1CCN(CCO)CC1)C2 (racemic),2,13,37,30,38,–,Drug metabolism [1]: Metabolite_Detected; Drug metabolism [2]: Metabolite_Detected; Drug metabolism [4]: Metabolite_Detected; AUC(0-t) at 6 h [5]: 3960 ng·h/mL; Drug metabolism [7]: Metabolite_Detected; half-life [10]: 8 min; half-life [11]: 37 min
COc1c(Nc2ncc(Cl)c(Nc3ccccc3N3CCCS3(=O)=O)n2)ccc2c1CCCC(N1CCN(CCO)CC1)C2 (racemic),6.1,16,38,60,48,–,–
CNC(=O)c1ccccc1Nc1nc(Nc2ccc3c(c2OC)CCCC(N2CCN(CCO)CC2)C3)ncc1Cl (racemic),–,> 40,> 40,–,47,≥ 10000,–
COc1ccccc1Nc1nc(Nc2ccc3c(c2OC)CCCC(N2CCN(CCO)CC2)C3)ncc1Cl (racemic),44,–,–,–,–,–,–
COc1c(Nc2ncc(Cl)c(N[C@H]3[C@@H](C(N)=O)[C@@H]4C=C[C@H]3C4)n2)ccc2c1CCC[C@H](N1CCN(C)CC1)C2,9 to 14,15,40,200,11,9100,IC50 [14]: > 10000 nM; IC50 [15]: > 10000 nM; AUC(0-inf) [16]: 4400 ng·h/mL; IC50 [17]: > 10000 nM; half-life [10]: 9 min; half-life [11]: 40 min; IC50 [18]: > 10000 nM; IC50 [19]: > 10000 nM
COc1c(Nc2ncc(Cl)c(Nc3ccccc3-c3nccn3C)n2)ccc2c1CCCC(N1CCN(CCO)CC1)C2 (racemic),5,18,22,50,19,–,–
COc1c(Nc2ncc(Cl)c(Nc3ccccc3N(C)S(C)(=O)=O)n2)ccc2c1CCCC(N1CCN(C)CC1)C2 (racemic),2.3,12,33,40,9,–,AUC(0-t) at 6 h [5]: 1300 ng·h/mL
COc1c(Nc2ncc(Cl)c(N[C@H]3[C@@H](C(N)=O)[C@@H]4C=C[C@H]3C4)n2)ccc2c1CCC[C@H](N1CCN(CCO)CC1)C2,5.8,18,15,30,10,> 10000,–
COc1c(Nc2ncc(Cl)c(N[C@H]3[C@@H](C(N)=O)[C@@H]4C=C[C@H]3C4)n2)ccc2c1CCC[C@H](N1CCOCC1)C2,7,6,5,–,–,–,–
COc1c(Nc2ncc(Cl)c(N[C@H]3[C@@H](C(N)=O)[C@@H]4C=C[C@H]3C4)n2)ccc2c1CCC[C@@H](N1CCOCC1)C2,1.5,5,5,–,–,–,–
COCCNC1CCCc2c(ccc(Nc3ncc(Cl)c(N[C@H]4[C@@H](C(N)=O)[C@@H]5C=C[C@H]4C5)n3)c2OC)C1 (stereo partly specified),7,15,31,–,–,–,–
COc1c(Nc2ncc(Cl)c(Nc3ccccc3NS(C)(=O)=O)n2)ccc2c1CCCC(N1CCN(CCO)CC1)C2 (racemic),18,40,40,–,–,–,IC50 [20]: > 2000 nM
COc1c(Nc2ncc(Cl)c(N[C@H]3[C@@H](C(N)=O)[C@@H]4C=C[C@H]3C4)n2)ccc2c1CC(N1CCOCC1)CCC2 (stereo partly specified),39,–,–,–,–,–,IC50 [20]: > 10000 nM
COc1c(Nc2ncc(Cl)c(N[C@H]3[C@@H](C(N)=O)[C@H]4C[C@@H]3C3OC34)n2)ccc2c1CC[C@@H](N1CCOCC1)CC2 (stereo partly specified),–,–,–,–,–,–,Drug metabolism [21]: Metabolite_Detected; Drug metabolism [22]: Metabolite_Detected
"COc1c(Nc2ncc(Cl)c(N[C@H]3[C@@H](C(N)=O)[C@@H]4C=C[C@H]3C4)n2)ccc2c1CCCC(N1CCN(C)CC1)C2 (single isomer, unassigned)",9,11,39,200,11,7900,IC50 [14]: > 10000 nM; IC50 [15]: > 10000 nM; AUC(0-inf) [16]: 5530 ng·h/mL; IC50 [17]: > 10000 nM; half-life [10]: 7 min; half-life [11]: 40 min; IC50 [18]: > 10000 nM; IC50 [19]: > 10000 nM
COc1c(Nc2ncc(Cl)c(Nc3ccccc3S(=O)(=O)N(C)C)n2)ccc2c1CCCC(N1CCN(CCO)CC1)C2 (racemic),4,18,40,40,28,240,–
COc1c(Nc2ncc(Cl)c(Nc3ccccc3-n3cccn3)n2)ccc2c1CCCC(N1CCN(CCO)CC1)C2 (racemic),2.3,40,40,20,19,3700,–
COc1c(Nc2ncc(Cl)c(N[C@H]3[C@@H](C(N)=O)[C@@H]4C=C[C@H]3C4)n2)ccc2c1CCC[C@@H](N1CCN(CCO)CC1)C2,6.3,–,–,50,–,> 10000,–
CNC(=O)c1ccccc1Nc1nc(Nc2ccc3c(c2OC)CCC[C@@H](N2CCN(CCO)CC2)C3)ncc1Cl,–,40,40,–,18,> 10000,IC50 [14]: > 5600 nM; IC50 [15]: > 5600 nM; AUC(0-inf) [16]: 1200 ng·h/mL; Papp A→B [23]: > 1 ×10⁻⁶ cm/s; IC50 [17]: > 5600 nM; half-life [10]: 24 min; half-life [11]: 40 min; IC50 [18]: > 5600 nM

# — ChEMBL document CHEMBL3856231 (J Med Chem, 2016)
